Experimental data: patent US20220235011A1, “PHTHALAZINONE COMPOUNDS AND USE THEREOF” (ST PHARM CO., LTD., priority 2019, published 2022)

Molecular target: T1, Sirt6 (Homo sapiens, UniProt Q8N6T7)
T1 construct: purchased CycLex CY-1156V2
Assay: Measurement of Sirt6 Activity (CycLex Sirt6 Deacetylase Fluorometric Assay Kit)
Assay type: biochemical
Conditions: compound at 10 μM, fluorescence relative to the group without compound treatment (positive control group)
Protocol: LC-MS (ESI, m/z)=430.1 (M+H^+) Experimental Example 1: Measurement of Sirt6 Activity Compounds having Sirt6 activity were selected using a CycLex Sirt6 Deacetylase Fluorometric Assay Kit (cat. CY-1156V2) manufactured by CycLex.
When a fluorescent-attached acetylated lysine substrate is treated with Sirt6 enzyme, Sirt6 deacetylates the acetylated lysine of the substrate and lysylendopeptidase cleaves the C-terminal peptide bond connected to the lysine, by which fluorescence is emitted. The activity of a compound is calculated by observing the intensity of fluorescence when the compound is treated along with Sirt6 enzyme. When treating the compound, the compound aids in the activity of Sirt6 enzyme, so as to result in stronger fluorescence. Therefore, by calculating the ratio of the stronger fluorescence relative to the fluorescence emitted from the group without compound treatment (i.e., positive control group), relative activity can be calculated.
Activity evaluation was performed according to the following procedure.
The compound whose activity is to be evaluated was prepared by diluting in phosphate-buffered saline (PBS) to 10 times of the desired concentration (e.g., when measuring Sirt6 assay activity at 10 μM, the compound is prepared at a concentration of 100 μM in PBS). 1 μL of a 1 Ox Sirt6 assay buffer, 0.8 μL of 50× fluoro-substrate peptide, 1 μL of nicotinamide adenine dinucleotide (NAD), 1 μL of a developer and 4.2 μL of H2O were mixed to prepare mixtures equal to the number of samples, and 8 μL was dispensed into each Black 384 well. An additional 1 μL of PBS was added to each of a “no enzyme group” and a positive control group, and 1 μL of the compound diluted in PBS was added to an activity evaluation group. Recombinant Sirt6 was 1:8 diluted in a 1×Sirt6 assay buffer, and 1 μL thereof was added to each of the positive control group and the activity evaluation group. 1 μL of the 1×Sirt6 assay buffer was added to the “no enzyme group.” After reacting at room temperature for one hour, results were measured with a fluorescence spectrometer (excitation: 490±10 nm, emission: 530±10 nm) to confirm the presence or absence of Sirt6 activity and measure the intensity of the activity.

T1 sequence (Q8N6T7 whole entry): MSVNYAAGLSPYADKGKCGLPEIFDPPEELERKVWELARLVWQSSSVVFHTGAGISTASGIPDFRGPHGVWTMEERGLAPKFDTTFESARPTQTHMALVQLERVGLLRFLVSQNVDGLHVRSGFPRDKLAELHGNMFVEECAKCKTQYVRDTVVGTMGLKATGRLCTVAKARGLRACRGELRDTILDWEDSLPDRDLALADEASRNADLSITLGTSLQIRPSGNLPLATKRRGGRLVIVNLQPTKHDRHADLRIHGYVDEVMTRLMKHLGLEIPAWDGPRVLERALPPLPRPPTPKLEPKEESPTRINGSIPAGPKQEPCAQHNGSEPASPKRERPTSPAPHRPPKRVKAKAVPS

SMILES: CC(C)/[N+]([O-])=C/c1cccc(-c2nn(-c3cc(F)cc(F)c3)c(=O)c3ccccc23)c1 [Example 31, (Z)-1-(3-(3-(3,5-Difluorophenyl)-4-oxo-3,4-dihydrophthalazin-1-yl)phenyl)-N-isopropyl Methanimine Oxide]
- Sirt6 Activity (% activity, 10 μM): 171 % activity

SMILES: COc1ccc(-n2nc(-c3cccc(/C=[N+](\[O-])C(C)C)c3)c3ccccc3c2=O)cc1 [Example 32, (Z)—N-Isopropyl-1-(3-(3-(4-methoxyphenyl)-4-oxo-3,4-dihydrophthalazin-1-yl)phenyl) Methanimine Oxide]
- Sirt6 Activity (% activity, 10 μM): 124 % activity

SMILES: CC(C)/[N+]([O-])=C/c1cccc(-c2nn(-c3ccc(F)c(Cl)c3)c(=O)c3ccccc23)c1 [Example 33, (Z)-1-(3-(3-(3-Chloro-4-fluorophenyl)-4-oxo-3,4-dihydrophthalazin-1-yl)phenyl)-N-isopropyl-methanimine Oxide]
- Sirt6 Activity (% activity, 10 μM): 183 % activity

SMILES: CC(C)(C)/[N+]([O-])=C/c1cccc(-c2nn(-c3ccc(F)c(Cl)c3)c(=O)c3ccccc23)c1 [Example 34, (Z)—N-tert-Butyl-1-(3-(3-(3-chloro-4-fluorophenyl)-4-oxo-3,4-dihydrophthalazin-1-yl)phenyl) Methanimine Oxide]
- Sirt6 Activity (% activity, 10 μM): 176 % activity

SMILES: O=c1c2ccccc2c(-c2cccc(/C=[N+](\[O-])Cc3ccccc3)c2)nn1-c1ccccc1 [Example 35, (Z)—N-Benzyl-1-(3-(4-oxo-3-phenyl-3,4-dihydrophthalazin-1-yl)phenyl)methanimine Oxide]
- Sirt6 Activity (% activity, 10 μM): 113 % activity

SMILES: C/[N+]([O-])=C\c1ccc(-c2nn(-c3ccc(F)cc3)c(=O)c3ccccc23)cc1 [Example 36, (E)-1-(4-(3-(4-Fluorophenyl)-4-oxo-3,4-dihydrophthalazin-1-yl)phenyl)-N-methylmethanimine Oxide]
- Sirt6 Activity (% activity, 10 μM): 142 % activity

SMILES: CC(C)/[N+]([O-])=C/c1cccc(-c2nn(-c3ccc(F)cc3)c(=O)c3ccccc23)c1 [Example 37, (Z)-1-(3-(3-(4-Fluorophenyl)-4-oxo-3,4-dihydrophthalazin-1-yl)phenyl)-N-isopropyl methanimine Oxide]
- Sirt6 Activity (% activity, 10 μM) (10 µM): 126 % activity

SMILES: C/[N+]([O-])=C\c1ccc(-c2nn(-c3ccc(F)cc3)c(=O)c3ccccc23)c(F)c1 [Example 38, (E)-1-(3-Fluoro-4-(3-(4-fluorophenyl)-4-oxo-3,4-dihydrophthalazin-1-yl)phenyl)-N-methylmethanimine Oxide]
- Sirt6 Activity (% activity, 10 μM): 143 % activity

SMILES: CC(C)/[N+]([O-])=C\c1ccc(-c2nn(-c3ccc(F)cc3)c(=O)c3ccccc23)c(F)c1 [Example 39, (E)-1-(3-Fluoro-4-(3-(4-fluorophenyl)-4-oxo-3,4-dihydrophthalazin-1-yl)phenyl)-N-isopropylmethanimine Oxide]
- Sirt6 Activity (% activity, 10 μM): 106 % activity

SMILES: C/[N+]([O-])=C/c1ccccc1-c1nn(-c2ccc(F)cc2)c(=O)c2ccccc12 [Example 40, (Z)-1-(2-(3-(4-Fluorophenyl)-4-oxo-3,4-dihydrophthalazin-1-yl)phenyl)-N-methylmethanimine Oxide]
- Sirt6 Activity (% activity, 10 μM): 160 % activity

SMILES: CC(C)/[N+]([O-])=C/c1ccccc1-c1nn(-c2ccc(F)cc2)c(=O)c2ccccc12 [Example 41, (Z)-1-(2-(3-(4-Fluorophenyl)-4-oxo-3,4-dihydrophthalazin-1-yl)phenyl)-N-isopropyl Methanimine Oxide]
- Sirt6 Activity (% activity, 10 μM): 129 % activity

SMILES: CC(C)(C)/[N+]([O-])=C/c1ccccc1-c1nn(-c2ccc(F)cc2)c(=O)c2ccccc12 [Example 42, (Z)—N-tert-Butyl-1-(2-(3-(4-fluorophenyl)-4-oxo-3,4-dihydrophthalazin-1-yl)phenyl)methanimine Oxide]
- Sirt6 Activity (% activity, 10 μM): 161 % activity

SMILES: CC(C)(C)/[N+]([O-])=C/c1cccc(-c2nn(-c3ccc(F)cc3)c(=O)c3ccccc23)c1 [Example 43, (Z)—N-tert-Butyl-1-(3-(3-(4-fluorophenyl)-4-oxo-3,4-dihydrophthalazin-1-yl)phenyl)methanimine Oxide]
- Sirt6 Activity (% activity, 10 μM): 205 % activity
